The NIST ThermoML archive (doi:10.1016/j.jct.2004.06.001)

Experiment: mn = molality of the nth substance listed, in mol/kg
Settings: Liquid

[I-].[Li+] [lithium iodide] + O
Settings	mass density [kg/m3]
296.95 K, 2530 kPa, m1 = 1.605	1145.62
296.95 K, 7845 kPa, m1 = 1.605	1148.05
296.95 K, 17808 kPa, m1 = 1.605	1152.57
296.95 K, 25811 kPa, m1 = 1.605	1156.03
297.35 K, 2354 kPa, m1 = 0.6621	1061.06
297.35 K, 12415 kPa, m1 = 0.6621	1065.64
297.35 K, 21241 kPa, m1 = 0.6621	1069.52
297.35 K, 29243 kPa, m1 = 0.6621	1072.92
298.15 K, 101.33 kPa, m1 = 0.0906	1005.8
298.15 K, 101.33 kPa, m1 = 0.2832	1024.34
298.15 K, 101.33 kPa, m1 = 0.6621	1059.93
298.15 K, 101.33 kPa, m1 = 1.605	1144.13
298.15 K, 101.33 kPa, m1 = 3.089	1266.24
308.15 K, 101.33 kPa, m1 = 0.0906	1002.8
308.15 K, 101.33 kPa, m1 = 0.2832	1021.1
308.15 K, 101.33 kPa, m1 = 0.6621	1056.4
308.15 K, 101.33 kPa, m1 = 1.605	1139.99
308.15 K, 101.33 kPa, m1 = 3.089	1261.08
310.65 K, 2040 kPa, m1 = 3.089	1260.87
310.65 K, 17475 kPa, m1 = 3.089	1267.92
310.65 K, 24026 kPa, m1 = 3.089	1270.75
313 K, 3020 kPa, m1 = 0.2832	1020.66
313 K, 10866 kPa, m1 = 0.2832	1024.09
313 K, 21163 kPa, m1 = 0.2832	1028.44
313 K, 31204 kPa, m1 = 0.2832	1032.59
313.75 K, 2275 kPa, m1 = 0.0906	1001.71
313.75 K, 12572 kPa, m1 = 0.0906	1006.16
313.75 K, 28596 kPa, m1 = 0.0906	1012.88
318.15 K, 101.33 kPa, m1 = 0.0906	998.97
318.15 K, 101.33 kPa, m1 = 0.2832	1017.22
318.15 K, 101.33 kPa, m1 = 0.6621	1052.27
318.15 K, 101.33 kPa, m1 = 1.605	1135.39
318.15 K, 101.33 kPa, m1 = 3.089	1255.57
328.15 K, 101.33 kPa, m1 = 0.0906	994.42
328.15 K, 101.33 kPa, m1 = 0.2832	1012.6
328.15 K, 101.33 kPa, m1 = 0.6621	1047.5
328.15 K, 101.33 kPa, m1 = 1.605	1130.28
328.15 K, 101.33 kPa, m1 = 3.089	1249.72
338.15 K, 101.33 kPa, m1 = 0.0906	989.22
338.15 K, 101.33 kPa, m1 = 0.2832	1007.35
338.15 K, 101.33 kPa, m1 = 0.6621	1042.13
338.15 K, 101.33 kPa, m1 = 1.605	1124.64
338.15 K, 101.33 kPa, m1 = 3.089	1243.52
348.15 K, 101.33 kPa, m1 = 0.0906	983.48
348.15 K, 101.33 kPa, m1 = 0.2832	1001.55
348.15 K, 101.33 kPa, m1 = 0.6621	1036.22
348.15 K, 101.33 kPa, m1 = 1.605	1118.49
348.15 K, 101.33 kPa, m1 = 3.089	1236.98
348.4 K, 2157 kPa, m1 = 0.6621	1037.06
348.4 K, 11670 kPa, m1 = 0.6621	1041.32
348.4 K, 23850 kPa, m1 = 0.6621	1046.48
348.4 K, 29910 kPa, m1 = 0.6621	1048.86
348.45 K, 3334 kPa, m1 = 0.2832	1002.87
348.45 K, 13808 kPa, m1 = 0.2832	1007.4
348.45 K, 22536 kPa, m1 = 0.2832	1011.08
348.45 K, 27851 kPa, m1 = 0.2832	1013.21
348.5 K, 3589 kPa, m1 = 1.605	1119.98
348.5 K, 10787 kPa, m1 = 1.605	1123.27
348.5 K, 21516 kPa, m1 = 1.605	1128.02
348.5 K, 27694 kPa, m1 = 1.605	1130.57
349.05 K, 2275 kPa, m1 = 0.0906	983.91
349.05 K, 7668 kPa, m1 = 0.0906	986.28
349.05 K, 16573 kPa, m1 = 0.0906	990.13
349.05 K, 21241 kPa, m1 = 0.0906	992.14
373.2 K, 6276 kPa, m1 = 3.089	1222.39
373.2 K, 17358 kPa, m1 = 3.089	1227.68
373.2 K, 24674 kPa, m1 = 3.089	1230.96
398.15 K, 3432 kPa, m1 = 0.0906	949.25
